Patent publication US12144799B2, “Method for long-term storage of chlorophyll-containing extract” (ABL CO., LTD, priority 2018, dated 2024)

How the values were obtained:
[1] = Storage stability test of chlorophyll a in stabilization candidate oils (HPLC content); details: chlorophyll a in the oil layer, room temperature storage, dark place
Description: (§1) In order to analyze the content of extracted chlorophyll, high-performance liquid chromatography (HPLC) was used. Purification was performed using the Agilent 1100 Series HPLC system from AGILENT, and the column used was Shimadzu Shim-pack C18 analytical column (250 mm×4.6 mm, 5 μm, 100). The peak was detected as ultraviolet ray absorption using a diode array detector. The injection volume was […], and the flow rate was […].
(§2) The reference material for chlorophyll a was purchased from Aldrich Chemical Co. (Milwaukee, Wis.), and was used without a further purification process.
The storage stability of chlorophyll a stabilization candidate materials used in the above process for chlorophyll-a was tested. Samples were collected for each storage period at various temperatures, and the content of chlorophyll a was analyzed using the HPLC system described above.
Temperatures for the test were respectively freezing temperature (−20° C.), refrigerating temperature (4° C.), room temperature (25° C.), high temperature (50° C.), and being left at room temperature.
In this process, ethanol was removed. Thereafter, the obtained was stored for a predetermined period in a dark place for each temperature to collect samples for each storage period, and then the content of chlorophyll a was analyzed using the HPLC system described above.

[2] = Fractional extraction of chlorophyll a from ethanol extract into oil layer (HPLC); format: physicochemical; details: oil added 1:1 (50 ml) to ethanol extract of wheatgrass powder, stirred, layers separated for 2 minutes
Description: as §1, §2

## CC(C)=CCC/C(C)=C/CC/C(C)=C/CC/C=C(\C)CC/C=C(\C)CCC=C(C)C [squalene]
[1]
  half-life of chlorophyll a: 7 months
[2]
  chlorophyll a moved to / dissolved in the oil phase: more than 80%
